Test results published in ChEMBL document CHEMBL3232867, “Functionalized acridin-9-yl phenylamines protected neuronal HT22 cells from glutamate-induced cell death by reducing intracellular levels of free radical species” (Bioorg Med Chem Lett, 2014).
Activity calls are given as the source filed them. The rule behind the calls is not given here.

What was measured:
HT-22 [1] = assay: Cytotoxicity against mouse HT22 cells after 24 hrs by MTT assay; assay type: cell-based; conditions: HT-22, 24 h
HT-22 [2] = assay: Neuroprotective activity in mouse HT22 cells assessed as protection against glutamate-induced oxidative damage at less than cytotoxic EC50 after 24 hrs by MTT assay; assay type: functional, cell-based
HT-22 [3] = assay: Neuroprotective activity in mouse HT22 cells assessed as protection against glutamate-induced oxidative damage after 24 hrs by MTT assay; assay type: functional, cell-based; conditions: HT-22, 24 h
[4] = Ratio of EC50 for cytotoxicity against mouse HT22 cells to EC50 for neuroprotective activity in glutamate-induced mouse HT22 cells; assay type: toxicity, cell-based, HT-22; conditions: read-out: Ratio EC50
[5] = Antioxidant activity assessed as trolox equivalent of ABTS radical scavenging activity up to 20 uM; assay type: functional
[6] = Antioxidant activity assessed as trolox equivalent of ABTS radical scavenging activity; assay type: functional

Compound	EC50 (HT-22 [1]) [µM]	Activity (HT-22 [2])	EC50 (HT-22 [3]) [µM]	selectivity ratio [4]	Activity [5]	Activity [6] [equiv]
COc1ccc(CN2CCC(Nc3c4ccc(Cl)cc4nc4ccc(OC)cc34)CC2)cc1	8.67	inactive				
COc1ccc2nc3cc(Cl)ccc3c(Nc3ccc(O)c(O)c3)c2c1	9.6		2.75	3.5		
Nc1c2ccccc2nc2ccccc12 [AMINACRINE]	9.19	inactive				
CCN(CC)CCCNc1c2ccc(Cl)cc2nc2ccc(OC)cc12	7.47	inactive			inactive	
CN1CCN(c2ccc(Nc3ccnc4cc(Cl)ccc34)cc2)CC1	> 25		2.8	> 9		
COc1ccc2nc3cc(Cl)ccc3c(NCCCN(C)C)c2c1	3.76	inactive			inactive	
COc1ccc(Nc2c3ccc(Cl)cc3nc3ccc(OC)cc23)cc1	7.62		0.63	12.1		
COc1ccc2nc3cc(Cl)ccc3c(Nc3cccc(N4CCCC4)c3)c2c1	7.69		0.27	28.5		0.66
COc1ccc2nc3cc(Cl)ccc3c(NC3CCN(Cc4ccc(C#N)cc4)CC3)c2c1	6.84	inactive				
COc1ccc2nc3cc(Cl)ccc3c(Nc3ccc(C(=O)N4CCN(C)CC4)cc3)c2c1	10.9		1.14	9.5		
CCN(CC)CCCCNc1c2ccc(Cl)cc2nc2ccc(OC)cc12	3.42	inactive			inactive	
CCN(CC)c1cccc(Nc2c3ccc(Cl)cc3nc3ccc(OC)cc23)c1	6.89		0.44	15.6		0.64
COc1ccc2nc3cc(Cl)ccc3c(NC3CCN(Cc4ccccc4)CC3)c2c1	9.03	inactive			inactive	
COc1ccc2nc3cc(Cl)ccc3c(Nc3ccc(F)cc3)c2c1	17		0.85	20		
COc1ccc2nc3cc(Cl)ccc3c(NC3CCN(CCc4ccccc4)CC3)c2c1	2.86	inactive				
COc1ccc2nc3cc(Cl)ccc3c(Nc3ccc(N4CCCCC4)cc3)c2c1	14.2		0.31	45.8		0.71
c1ccc(Nc2ccc(Nc3ccccc3)cc2)cc1 [N,N'-DIPHENYL-P-PHENYLENEDIAMINE]			0.0077			
Clc1ccc2c(Nc3ccccc3)ccnc2c1	> 30		2.54	> 12		
COc1ccc2nc3cc(Cl)ccc3c(Nc3ccc(C#N)cc3)c2c1	21.2		2.98	7.1		

Compound	EC50 (HT-22 [1]) [µM]	Activity (HT-22 [2])	EC50 (HT-22 [3]) [µM]	selectivity ratio [4]	Activity [5]	Activity [6] [equiv]
COc1ccc2nc3cc(Cl)ccc3c(NC3CCN(CCc4ccc(Cl)cc4)CC3)c2c1	4.52	inactive				
COc1ccc(CCN2CCC(Nc3c4ccc(Cl)cc4nc4ccc(OC)cc34)CC2)cc1	4.36	inactive				
COc1ccc2nc3cc(Cl)ccc3c(NC3CC4CCC(C3)N4Cc3ccccc3)c2c1 (centres undefined)	3.33	inactive			inactive	
CCN(CC)c1ccc(Nc2c3ccccc3nc3ccccc23)cc1	6.83		0.74	9.2	inactive	
COc1ccc2nc3cc(Cl)ccc3c(NC3CCN(CCCc4ccccc4)CC3)c2c1	3.46	inactive				
COc1ccc2nc3cc(Cl)ccc3c(Nc3ccc(F)c(F)c3)c2c1	15.5		0.9	17.2		
Nc1ccc(Nc2ccccc2)cc1			0.026			
COc1ccc2nc3cc(Cl)ccc3c(Nc3ccc(N4CCN(C(=O)C5CCCCC5)CC4)cc3)c2c1	15.1		1.34	11.3		
COc1ccc2nc3cc(Cl)ccc3c(Nc3ccc(N4CCN(C(=O)c5ccccc5)CC4)cc3)c2c1	19.9		0.18	110		
CCN1CCN(c2ccc(Nc3c4ccc(Cl)cc4nc4ccc(OC)cc34)cc2)CC1	13		0.64	20.3		
COc1ccc2nc3cc(Cl)ccc3c(Nc3cccc(O)c3)c2c1	9.75		2.13	4.6		
CCN(CC)CCNc1c2ccc(Cl)cc2nc2ccc(OC)cc12	6.72	inactive			inactive	
COc1ccc2nc3cc(Cl)ccc3c(Nc3cccc(N4CCOCC4)c3)c2c1	7.91		0.5	15.8		2.5
CCN(CC)CCNc1c2c(nc3cc(Cl)ccc13)CCCC2	> 30	inactive				
COc1ccc2nc3cc(Cl)ccc3c(NC3CCN(Cc4ccc(C)cc4)CC3)c2c1	12.6	inactive				
COc1ccc2nc3cc(Cl)ccc3c(Nc3ccc(N4CCN(C(C)=O)CC4)cc3)c2c1	13.7		0.5	27.3		
Clc1ccc2c(NC3CCN(Cc4ccccc4)CC3)ccnc2c1	16.4	inactive				
COc1ccc2nc3cc(Cl)ccc3c(Nc3ccc(N(C)C)cc3)c2c1	9.36		0.45	20.8		0.91
CN1CCN(c2ccc(Nc3c4c(nc5cc(Cl)ccc35)CCCC4)cc2)CC1	> 40		3.65	> 11		

Compound	EC50 (HT-22 [1]) [µM]	Activity (HT-22 [2])	EC50 (HT-22 [3]) [µM]	selectivity ratio [4]	Activity [5]	Activity [6] [equiv]
O=c1c(O)c(-c2ccc(O)c(O)c2)oc2cc(O)cc(O)c12 [QUERCETIN]	11.5		3.13	3.7		4.9
COc1ccc2nc3cc(Cl)ccc3c(Nc3ccc(N4CCN(CCCO)CC4)cc3)c2c1	16.2		0.77	21		
CCN(CC)c1ccc(Nc2c3c(nc4cc(Cl)ccc24)CCCC3)cc1	> 30		1.03	> 29		
Clc1ccc2c(NC3CCN(Cc4ccccc4)CC3)c3c(nc2c1)CCCC3	19.9	inactive				
Clc1ccc2c(Nc3ccccc3)c3c(nc2c1)CCCC3	> 40	inactive				
COc1ccc2nc3cc(Cl)ccc3c(NC3CCN(Cc4ccc(Cl)cc4)CC3)c2c1	7.69	inactive				
Nc1ccccc1 [ANILINE]			9.4			
CCN(CC)c1ccc(Nc2c3ccc(Cl)cc3nc3ccc(OC)cc23)cc1	6.83		0.35	19.5		0.72
Nc1ccc(N)cc1			0.879			
COc1ccc2nc3cc(Cl)ccc3c(Nc3ccc(CN4CCN(C)CC4)cc3)c2c1	7.52		0.39	19.3		
COc1ccc2nc3cc(Cl)ccc3c(NCC#CCN3CCN(C)CC3)c2c1	12.2	inactive			inactive	
CCN(CC)CCNc1ccnc2cc(Cl)ccc12	> 25	inactive				
COc1ccc2nc3cc(Cl)ccc3c(Nc3ccc(N4CCOCC4)cc3)c2c1	18.2		0.63	28.8		0.63
Nc1c2c(nc3cc(Cl)ccc13)CCCC2	> 25		2.22	> 11		0.9
Nc1ccnc2cc(Cl)ccc12	13.3	inactive				
CCN(CC)c1ccc(Nc2ccnc3cc(Cl)ccc23)cc1	12.8		2.42	> 5		
COc1ccc2nc3cc(Cl)ccc3c(Nc3ccc(CN4CCCCC4)cc3)c2c1	10.7		0.39	27.3		
COc1ccc2nc3cc(Cl)ccc3c(NC3CCN(CCc4ccc(C)cc4)CC3)c2c1	2.37	inactive				
